From patent publication US11931431B2, “PSMA-targeted radiopharmaceutical for diagnosing and treating prostate cancer” (FUTURECHEM CO., LTD, priority 2018, dated 2024)
“Also recorded” adds a separate entry of the source. Blank lines part the entries; values can stand above or below the compound they belong to.

Legend:
[1] = target: PSMA (Homo sapiens, UniProt Q04609); conditions: cited from earlier work
[2] = test system: PSMA^+ PC-3 PIP tumors; experiment: MicroPET/CT imaging of mice transplanted with prostate cancer cell lines; type: in vivo, nude mouse
Protocol: A tumor model was prepared by subcutaneously injecting PSMA^+ PC-3 PIP cells (a human prostate cancer cell line) to the right side of the nude mouse hind leg. Each of the ^68Ga-labeled compounds [^68Ga]1e, [^68Ga]1g, [^68Ga]1h and [^68Ga]1k was intravenously injected with 5.5 to 6.5 MBq (148-175 μCi/200 μL), and PET/CT images were obtained using small animal INVEON PET/CT (Siemens medical solutions, Knoxville, USA) for 60 minutes. After 150 minutes, 270 minutes, and 390 minutes, PET/CT images were also obtained for 30 minutes. The obtained PET/CT image results were quantitatively analyzed using Inveon™ Research Workplace (IRW).
FIGS. 1, 2, 3, and 4 are graphs showing the quantitative analysis results of MicorPET/CT images for [^68Ga]1e, [^68Ga]1g, [^68Ga]1h, and [^68Ga]1k in % injected dose (ID)/g, and summarized in Tables 3, 4, 5, and 6, respectively.

[3] = test system: PSMA^+ PC-3 PIP tumors; experiment: Biodistribution test with mice transplanted with prostate cancer cell lines (gamma counter); type: in vivo, nude mouse; conditions: 5 hours after injection, gamma counter
Protocol: After 270 minutes of [^68Ga]1e and [^68Ga]1g injection, microPET/CT images were obtained for 30 minutes, and then each organ (blood, muscle, fat, heart, lung, liver, spleen, stomach, intestine, kidney, bone and tumor) was extracted and the radioactivity thereof was measured using a gamma counter.

[4] = Measurement of lipophilicity (log P), n-octanol/PBS; type: physicochemical; conditions: mean of 3
Protocol: Each of the [^68Ga]1 compounds (1˜2 mci) synthesized in Example 14 was transferred into a vial, and the solvent was removed, to which 1 mL of n-octanol and 1 mL of PBS were added, and the lid was well closed, followed by mixing with a vortex for 1 minute. After the layers were separated, 0.1 mL was taken from each layer and the radiation dose was measured. The radiation dose was measured by repeating 3 times, and the mean value was obtained.

Chain of PSMA (Q04609 whole entry): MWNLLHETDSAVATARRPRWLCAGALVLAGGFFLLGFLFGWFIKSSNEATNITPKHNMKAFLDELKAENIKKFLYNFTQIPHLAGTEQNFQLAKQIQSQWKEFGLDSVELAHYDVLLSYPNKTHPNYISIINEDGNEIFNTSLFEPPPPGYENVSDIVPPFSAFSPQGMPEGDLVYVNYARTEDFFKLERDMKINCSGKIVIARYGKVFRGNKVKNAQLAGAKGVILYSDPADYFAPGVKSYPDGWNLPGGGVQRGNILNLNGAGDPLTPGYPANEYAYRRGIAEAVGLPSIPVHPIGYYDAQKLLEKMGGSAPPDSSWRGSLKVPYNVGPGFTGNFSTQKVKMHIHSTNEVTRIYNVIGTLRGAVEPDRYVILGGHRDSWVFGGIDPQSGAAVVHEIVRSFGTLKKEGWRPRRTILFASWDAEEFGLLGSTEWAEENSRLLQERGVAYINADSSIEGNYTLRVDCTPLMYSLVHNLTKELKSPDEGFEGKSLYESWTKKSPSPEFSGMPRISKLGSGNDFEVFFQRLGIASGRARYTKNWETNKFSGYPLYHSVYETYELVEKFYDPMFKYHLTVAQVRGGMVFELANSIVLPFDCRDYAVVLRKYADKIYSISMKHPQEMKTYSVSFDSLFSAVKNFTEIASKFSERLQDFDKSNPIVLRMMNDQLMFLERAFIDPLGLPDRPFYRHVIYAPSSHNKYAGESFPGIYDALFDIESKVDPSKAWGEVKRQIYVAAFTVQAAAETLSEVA

Structure (SMILES): O=C(O)CC[C@H](NC(=O)N[C@@H](CCCCNC(=O)Nc1ccc([125I])cc1)C(=O)O)C(=O)O [[^125I]30]
Kd [1]: 0.13 nM

intake of mouse organ: Bladder ([2]; 10 min after injection): 19.37 ± 0.32 % ID/g
intake of mouse organ: Kidney ([2]; 10 min after injection): 21.37 ± 9.18 % ID/g
intake of mouse organ: Liver ([2]; 10 min after injection): 4.76 ± 0.42 % ID/g
intake of mouse organ: Muscle ([2]; 10 min after injection): 1.46 ± 0.14 % ID/g
intake of mouse organ: Tumor (PIP) ([2]; 10 min after injection): 2.33 ± 0.36 % ID/g
intake of mouse organ: Bladder ([2]; 20 min after injection): 47.31 ± 7.34 % ID/g
intake of mouse organ: Kidney ([2]; 20 min after injection): 10.96 ± 4.32 % ID/g
intake of mouse organ: Liver ([2]; 20 min after injection): 1.96 ± 0.22 % ID/g
intake of mouse organ: Muscle ([2]; 20 min after injection): 1.38 ± 0.11 % ID/g
intake of mouse organ: Tumor (PIP) ([2]; 20 min after injection): 3.64 ± 0.49 % ID/g
intake of mouse organ: Bladder ([2]; 30 min after injection): 55.82 ± 12.46 % ID/g
intake of mouse organ: Kidney ([2]; 30 min after injection): 10.88 ± 7.09 % ID/g
intake of mouse organ: Liver ([2]; 30 min after injection): 1.29 ± 0.05 % ID/g
intake of mouse organ: Muscle ([2]; 30 min after injection): 0.95 ± 0.13 % ID/g
intake of mouse organ: Tumor (PIP) ([2]; 30 min after injection): 4.08 ± 0.60 % ID/g
intake of mouse organ: Bladder ([2]; 40 min after injection): 60.63 ± 15.48 % ID/g
intake of mouse organ: Kidney ([2]; 40 min after injection): 14.92 ± 13.57 % ID/g
intake of mouse organ: Liver ([2]; 40 min after injection): 1.00 ± 0.03 % ID/g
intake of mouse organ: Muscle ([2]; 40 min after injection): 0.61 ± 0.05 % ID/g
intake of mouse organ: Tumor (PIP) ([2]; 40 min after injection): 4.44 ± 0.48 % ID/g
intake of mouse organ: Bladder ([2]; 50 min after injection): 64.24 ± 12.76 % ID/g
intake of mouse organ: Kidney ([2]; 50 min after injection): 15.84 ± 15.60 % ID/g
intake of mouse organ: Liver ([2]; 50 min after injection): 0.80 ± 0.02 % ID/g
intake of mouse organ: Muscle ([2]; 50 min after injection): 0.53 ± 0.05 % ID/g
intake of mouse organ: Tumor (PIP) ([2]; 50 min after injection): 4.56 ± 1.03 % ID/g
intake of mouse organ: Bladder ([2]; 60 min after injection): 67.80 ± 8.56 % ID/g
intake of mouse organ: Kidney ([2]; 60 min after injection): 15.72 ± 16.29 % ID/g
intake of mouse organ: Liver ([2]; 60 min after injection): 0.65 ± 0.04 % ID/g
intake of mouse organ: Muscle ([2]; 60 min after injection): 0.35 ± 0.05 % ID/g
intake of mouse organ: Tumor (PIP) ([2]; 60 min after injection): 4.73 ± 0.98 % ID/g
intake of mouse organ: Bladder ([2]; 150 min after injection): 31.85 ± 35.57 % ID/g
intake of mouse organ: Kidney ([2]; 150 min after injection): 0.70 ± 0.02 % ID/g
intake of mouse organ: Liver ([2]; 150 min after injection): 0.06 ± 0.01 % ID/g
intake of mouse organ: Muscle ([2]; 150 min after injection): 0.02 ± 0.01 % ID/g
intake of mouse organ: Tumor (PIP) ([2]; 150 min after injection): 4.20 ± 0.42 % ID/g
intake of mouse organ: Bladder ([2]; 270 min after injection): 1.45 ± 1.62 % ID/g
intake of mouse organ: Kidney ([2]; 270 min after injection): 0.41 ± 0.16 % ID/g
intake of mouse organ: Liver ([2]; 270 min after injection): 0.03 ± 0.01 % ID/g
intake of mouse organ: Muscle ([2]; 270 min after injection): 0.01 ± 0.01 % ID/g
intake of mouse organ: Tumor (PIP) ([2]; 270 min after injection): 4.05±0.64 % ID/g
Radioactivity in mouse organ: Blood [3]: 0.01 ± 0.00 % ID/g
Radioactivity in mouse organ: Bone [3]: 0.00 ± 0.00 % ID/g
Radioactivity in mouse organ: Fat [3]: 0.01 ± 0.00 % ID/g
Radioactivity in mouse organ: Heart [3]: 0.01 ± 0.00 % ID/g
Radioactivity in mouse organ: Intestine [3]: 0.09 ± 0.08 % ID/g
Radioactivity in mouse organ: Kidney [3]: 0.82 ± 0.51 % ID/g
Radioactivity in mouse organ: Liver [3]: 0.02 ± 0.01 % ID/g
Radioactivity in mouse organ: Lung [3]: 0.02 ± 0.01 % ID/g
Radioactivity in mouse organ: Muscle [3]: 0.01 ± 0.00 % ID/g
Radioactivity in mouse organ: PSMA + PIP (tumor intake rate) [3]: 7.34 ± 5.49 % ID/g
Radioactivity in mouse organ: Spleen [3]: 0.01 ± 0.00 % ID/g
Radioactivity in mouse organ: Stomach [3]: 0.02 ± 0.02 % ID/g
logP [4]: −2.88
Structure (SMILES): O=C(O)CCC(NC(=O)NC(CCCCN(CC(=O)O)C(=O)COCCOCCNC(=O)CN1CCN2CCN3CCN(CC1)CC(=O)[O][68Ga]([O]C(=O)C2)[O]C(=O)C3)C(=O)O)C(=O)O (stereo not shown) [[^68Ga]1e]
excretion, in words ([2]; MicroPET/CT): rapidly excreted through the kidney and bladder; also recorded: rapidly excreted out of the body
